Converted amounts (≈) assume the structure as drawn. “Also recorded” adds a separate entry of the source.
How the values were obtained:
[1] = biological target: Yeast α-glucosidase enzyme; experiment: α-Glucosidase inhibition assay (PNPG substrate); format: biochemical; settings: for IC50 / IC50 (μg/mL), α-glucosidase inhibitory activity: NA = no inhibitory activity, acarbose positive control
Protocol: Yeast α-glucosidase enzyme was used in this study. In general, α-glucosidase enzymes can be obtained from several sources, for example, Saccharomyces cerevisiae, Rattus norvegicus, and GANC-human.
The assays were performed following previous protocols. […] Each sample was initially dissolved in 50% DMSO. Then, 0.1 U/mL of α-glucosidase (40 μL) in phosphate buffer (pH 6.8) was added to each well of a 96-well plate which contained the sample solution (10 μL). The plate was pre-incubated at 37 °C for 10 min. Then, 2 mM p-nitrophenol-α-D-glucopyranoside (50 μL) was added, and the mixture was incubated again at 37 °C for 20 min. Finally, 1 M Na2CO3 solution (100 μL) was added to terminate the reaction. The absorbance of the mixture was measured at 405 nm using a microplate reader. Two-fold serial dilution was performed for IC50 determination. The drug acarbose was used as the positive control.

[2] = tested on: Yeast α-glucosidase enzyme; experiment: Enzyme kinetics study, Lineweaver–Burk plot and secondary plot; format: biochemical; settings: for Mode of enzyme inhibition: from Lineweaver–Burk plot; for Km / Vmax: PNPG 0.25–2.0 mM
Protocol: A kinetics study was then performed on compound 3 to analyze the mode of enzyme inhibition using various substrate concentrations (0.25–2.0 mM).
The mode of enzyme inhibition of the test compound was determined using the double reciprocal Lineweaver–Burk plot (1/V vs. 1/[S]). The experiment was performed by varying the PNPG concentrations (0.25, 0.5, 1.0, and 2.0 mM) in the absence or presence of compound 3 (4 μM and 8 μM) or acarbose (930 μM and 465 μM). The secondary plot was constructed by replotting the slopes of the lines against inhibitor concentrations, and the Ki was calculated from the line equation of the plot.

Row | SMILES | IC50 [1] [µM] | IC50 (μg/mL), α-glucosidase inhibitory activity [1] [µg/mL] | also measured
1 | COc1cc(O)cc2c1-c1cc(O)c(O)cc1CC2 [5-methoxy-9,10-dihydrophenanthrene-2,3,7-triol] | 115 ± 9.1 | 29.7 ± 2.3 (≈ 115 µM) | 
2 | COc1cc2c(ccc3c(-c4c(O)cc5c6c4ccc4cc(O)c(OC)c(c46)CO5)c(O)cc(OC)c32)cc1O [Aerimultin B (2), aerimultin B] | 77 ± 2.5 | 41.8 ± 1.3 (≈ 77.9 µM) | 
3 | COc1cc(O)c(-c2c(O)cc(OC)c3c2ccc2cc(O)c(O)cc23)c2ccc3cc(O)c(O)cc3c12 [Aerimultin C (3), aerimultin C] | 5.2 ± 0.7 | 2.7 ± 0.4 (≈ 5.29 µM) | α-Glucosidase inhibitory activity (in words) [1]: most potent activity; Mode of enzyme inhibition [2]: non-competitive inhibition; also recorded: potent non-competitive inhibitor; Mode of enzyme inhibition ([2]; listed as aerimultin (3)): non-competitive type of inhibition; Ki ([2]; from secondary plot (slopes vs inhibitor concentrations)): 4.18 µM; Km ([2]; inhibitor dose 4 μM): 1220 µM; Vmax ([2]; inhibitor dose 4 μM): 0.055 ∆OD/min; Km ([2]; inhibitor dose 8 μM): 1200 µM; Vmax ([2]; inhibitor dose 8 μM): 0.035 ∆OD/min
4 | COc1cc2c(ccc3c(-c4c(O)cc(OC)c5c4ccc4cc(O)c(OC)cc45)c(O)cc(OC)c32)cc1O [Agrostonin (8), agrostonin] | 37.2 ± 4.5 | 20.1 ± 2.5 (≈ 37.3 µM) | 
5 | COc1cc(CCCOC(=O)CCc2ccc(O)cc2)ccc1O [Dihydroconiferyl dihydro-p-coumarate (9), dihydroconiferyl dihydro-p-coumarate] | 267 ± 8.6 | 88.1 ± 2.9 (≈ 267 µM) | 
6 | COc1cc(CCC(=O)OCCCc2cc(OC)c(O)c(OC)c2)ccc1O [Dihydrosinapyl dihydroferulate (4), dihydrosinapyl dihydroferulate] |  |  | α-Glucosidase inhibitory activity (in words) [1]: total loss of activity
7 | COc1c(O)cc2c3c1COc1cc(O)cc(c1-3)CC2 [Imbricatin (7), imbricatin] | 166 ± 7.7 | 44.9 ± 2.1 (≈ 166 µM) | 

Continued, in another order:

Row | IC50 [1] [µM] | IC50 (μg/mL), α-glucosidase inhibitory activity [1] [µg/mL] | SMILES | also measured
8 | 225 ± 7.8 | 61.2 ± 2.2 (≈ 225 µM) | COc1cc2c(cc1O)CCc1cc(O)cc(OC)c1-2 [6-Methoxy coelonin (5), 6-methoxycoelonin] | 
9 | 30.9 ± 1.9 | 16.8 ± 1.0 (≈ 31 µM) | COc1cc2c(cc1O)CCc1c(Oc3cc4c(cc3OC)-c3c(cc(O)cc3OC)CC4)c(O)cc(OC)c1-2 [Aerimultin A (1), aerimultin A] | 
10 | 191 ± 6.8 | 52.5 ± 1.9 (≈ 191 µM) | COc1cc(O)cc(CCc2ccc(O)c(OC)c2)c1 [Gigantol (6), gigantol] | 

From article PMC7922108, “Three Novel Biphenanthrene Derivatives and a New Phenylpropanoid Ester from Aerides multiflora and Their α-Glucosidase Inhibitory Activity” (Plants, 2021)
